Test results from patent US11554105B2, “Combinations of artemisinins, BCL-2 inhibitors, and kinase inhibitors for cancer treatment” (UNIVERSITY OF MARYLAND, BALTIMORE, priority 2018, dated 2023).
Entries after “also recorded” stand apart in the source; their conditions may differ. Read-outs that look alike come from different tables or passages of the source. Marks after values point to notes of the source that are not given here.

Legend:
[1] = test system: MOLM14, KOPN8 and RCH-ACV cell lines; test: Kinase inhibitor drug combination screen, summary over the three cell lines; details: for synergy with either AS or ART-838: growth inhibition of human leukemia cell lines; for No. Cell Lines synergistically inhibited by drug 1 combined with AS and/or ART-838: >10% growth inhibition over the Bliss prediction, of three cell lines
MOLM14 cells [2] = test: Combinations of AS, ART-838 or DHA with ABT-199, ABT-263 or ABT-737 (alamarBlue, 48 h); format: cell-based; details: Homo sapiens, MOLM-14; for inhibition at 0.037 µM: MOLM14
Method: FIG. 12. […] Then cytotoxicity was evaluated by alamarBlue assays. Each experiment was performed in triplicate.
MOLM14 or KOPN8 cells were seeded in 96-well plates as described above for alamarBlue assays. […] AlamarBlue assays were performed as described above. Each set of drugs or drug combinations was tested in triplicate. Chou-Talalay drug combination analysis was performed as above.

[3] = test system: MOLM14-luc AML xenografts; test: Subcutaneous MOLM14-luc xenograft growth, ARA with ART-838; format: in vivo, NSG mice; details: tumor size on day 24; Ara-C 40 mg/kg/d i.p., ART-838 200 mg/kg/d p.o.
Method: Ara-C (40 mg/kg/d) was given i.p. on day 17, 18, 19, 20, 21 and 24. […] Mouse tumors were measured on the indicated days.
Highly immunodeficient NSG mice, obtained originally from Jackson Laboratory (Bar Harbor, Me.), were bred and housed in the UMSOM animal facilities, and handled in a laminar flow hood under aseptic conditions. […] For the human AML xenograft model, 6-12-week-old male NSG mice (>20 g) were transplanted sc with MOLM14-luc cells on day 0 and drug-treated via oral gavage, as specified in legend. Mice were monitored daily and euthanized when tumors reached an estimated mass of 2000 mg (using the formula: [length×width2]/2, assuming density=1 mg/mm3) [64].
Palpable tumors (approximately 100 mg tumor mass) appeared in mice about 2 weeks after transplantation. Mouse tumors were measured with calipers on the indicated days.

MOLM14 cells [4] = test: alamarBlue cytotoxicity assay, single drugs, 48 h; format: cell-based; details: Homo sapiens, MOLM-14, MOLM14, 48 h, means of at least three experiments
Method: Cytotoxicity was assessed using alamarBlue assays (Life Technologies, Grand Island, N.Y.; used for IC50 determinations and all drug combinations except the drug combination screen (method described separately below)) or Trypan Blue dye exclusion (Life Technologies, Grand Island, N.Y.; used for experiments using inhibitors that could interfere with alamarBlue assay performance (NAC, Tiron, DFO)).
(§1) Cell lines were seeded in 96-well tissue culture plates at 10^4 cells per well (myeloid leukemia lines) or 2×10^4 cells per well (lymphoid leukemia lines) in culture medium, followed by addition of drugs at the indicated concentrations. 2-4 wells per plate containing media-only were included for background subtraction. Peripheral wells were filled with sterile water to minimize the effects of evaporation.
Results were normalized to cells treated with vehicle (0.5% DMSO) alone. IC50s were calculated using CompuSyn software and represent the means of at least three experiments performed in triplicate.

[5] = test system: mitochondrial superoxide in MOLM14 cells; test: Mitochondrial superoxide (MitoSOX Red, flow cytometry); format: cell-based, human; details: 16 h; for mitochondrial superoxide generation, drug alone: 2.25× approximate 48 h IC50, MitoSox MFI; for effect of the drug on AS-induced superoxide: drug combined with AS, each at 2.25× approximate 48 h IC50; for effect of the drug on ART-838-induced superoxide: drug combined with ART-838, each at 2.25× approximate 48 h IC50
Method: FIGS. 4A-4D. Effects of ART-838- and AS-containing drug combinations on MOLM14 growth and superoxide generation. […] CIs were computed as described above. CI<1 indicates synergy, CI=1, additivity, CI>1, antagonism. […] Cells were then loaded with 5 μM MitoSox for 30 min, washed, and analyzed by flow cytometry for MitoSox fluorescence (indicating mitochondrial superoxide) in the FL2 channel. Mean fluorescence intensity (MFI) was normalized to that of vehicle control (0.5% DMSO) with no pretreatment (100%, lower dotted lines). Upper dotted lines show MFI of ART-838- or AS-treated cells. Error bars represent the SEM of three independent experiments.
Cells were pretreated with NAC, Tiron, DFO, or vehicle then treated with AS, ART-838, or vehicle, as described above, then following a 16-hour drug treatment, cells were loaded with 5 μM MitoSOX Red (Invitrogen, Carlsbad, Calif.) for 30 minutes at 37° C. with 5% CO2, then analyzed using the FL2 channel of an Accuri C6 flow cytometer.
As both ART-838 and AS increased mitochondrial superoxide, and many antineoplastic drugs induce ROS generation, mitochondrial superoxide levels of MOLM14 cells treated with each of the above six antileukemic drugs were evaluated, alone and in combination with ART-838 or AS. All six drugs induced mitochondrial superoxide, although to a much lesser extent than did ART-838 (FIG. 4B) or AS (FIG. 4D).

in vivo = details: NRG (NOD-Rag1null IL2rgnull), mouse, in vivo, po
Source text: FIG. 24. Concentration-time profile for 2C-ARTs with PK parameters.
FIG. 25A-25C. […] NOD-Rag1^nullIL2rg^null (NRG) mice were transplanted IV with Luc-labelled MV4; 11 cells on d10. […] FIG. 25A) MTD cyclic drug treatment schema.

human AML cell lines = test: In vitro efficacies of artemisinin derivatives against human AML cell lines; format: cell-based
Method: as §1
A novel trioxane dimer allyloxime-631 (ART631) has been designed to further extend in vivo T1/2 without sacrificing antimalarial activity.

MOLM14 cells [6] = test: Chou-Talalay drug combination analysis (alamarBlue) of AS or ART-838 with antileukemic drugs; format: cell-based, human; details: simultaneous 48 h, each drug at 2.25× single-drug IC50, CI<1 synergy, =1 additivity, >1 antagonism
Method: For each two-drug pair, dose-response curves were generated for each drug individually and for the two drugs combined. […] This design is based on the recommendation of Chou that combination experiments be performed with drugs combined in an equipotent ratio based on their respective single-drug IC50 values. Following a 48-hour incubation with each drug or drug pair, cytotoxicity assays were performed using alamarBlue as described above.
Each set of drug combinations was tested in at least three independent experiments, each in triplicate.
Sequences are depicted at the bottom of FIG. 5.

[7] = test system: acute leukemia xenografts; test: Acute leukemia xenografts treated with ART838 two-drug combinations; format: in vivo; details: compared to vehicle or single drugs
Source text: (§2) To add to the efficacy of this ART838 plus ABT199 treatment regimen, rational addition of a third low-toxicity active antileukemic agent was investigated.

MOLM14 AML xenografts = test: Subcutaneous MOLM14 xenograft growth, SOR with AS; format: in vivo, NSG mice; details: tumor size on day 24; drugs p.o.
Method: FIG. 15. AS enhanced in vivo efficacy of Sorafenib (SOR) against acute leukemia xenografts in NSG mice. […] Drug or vehicle were given p.o. on day 3-7, 17-21, and 31-35 when possible. Mouse tumors were measured on the indicated days.
The NSG mice were obtained, maintained and handled as described in the paragraph immediately above. AS was also formulated in Tween 80:ethanol (7:3, v:v) and diluted 1:10 in filtered deionized water immediately before administration. For the human AML xenograft model, 6-12-week-old male NSG mice (>20 g) were transplanted sc with MOLM14 cells on day 0 and drug-treated via oral gavage, as specified in legend. Mice were monitored daily and euthanized when tumors reached an estimated mass of 2000 mg as described in the paragraph immediately above.
Palpable tumors appeared about 2 weeks after transplantation.

MCL1 = test: Western blot of MCL1 protein levels; format: cell-based, human; details: acute leukemia / AML cell lines
Method: FIG. 22. ART631 increased ROS and CHOP levels, and reduced MCL1 protein levels. A) MOLM14 AML cells were pre-loaded with 5 mM ROS detection reagent CM-H2DCFDA for 30 m, pretreated with 11 mM for DFO for 60 m, then cultured with 200 nM ART631 or vehicle (DMSO) for 18 h and analyzed by flow cytometry. […] Protein was Western blotted as in FIG. 21. MCL1 protein levels were decreased and CHOP protein levels increased. C) From MOLM14 AML cells cultured as above, total RNA was isolated, cDNA synthesized, and SYBR Green qRT-PCR performed in triplicates. Ct values were normalized to housekeeping gene GAPDH and fold-change computed relative to vehicle control. DDIT3 mRNA (encoding CHOP protein) was increased. MV4; 11 AML and ML2 AML cell lines were tested with similar results.
as §2
Many acute myeloid leukemia (AML) cell lines express MCL1±BCL2 (FIG. 21). As with other ARTs, ART631 elevates AML cellular ROS (FIG. 22A), which is reduced by the iron chelator desferrioxamine (DFO). […] Culture of AML cells with ARTs increased CHOP protein and DDIT3 mRNA (encodes CHOP) levels (FIG. 22C).

Structure (SMILES): CC1(C)CCC(CN2CCN(c3ccc(C(=O)NS(=O)(=O)c4ccc(NCC5CCOCC5)c([N+](=O)[O-])c4)c(Oc4cnc5[nH]ccc5c4)c3)CC2)=C(c2ccc(Cl)cc2)C1 [ABT-199, venetoclax]
- average inhibition over the Bliss predictions, ABT-199 plus ART-838 ([1]; average of 3/3 cell lines): 21%
- average inhibition over the Bliss predictions, ABT-199 plus AS ([1]; average of 3/3 cell lines): 17%
- inhibition at 0.037 µM (MOLM14 cells [2]; 37 nM ABT-199 + 25 nM ART-838, read-out: growth inhibition, ABT-199 together with ART-838): 100%
- inhibition at 0.037 µM (MOLM14 cells [2]; 37 nM ABT-199 + 825 nM AS, read-out: growth inhibition, ABT-199 together with AS): 100%

Structure (SMILES): CC1(C)CCC(c2ccc(Cl)cc2)=C(CN2CCN(c3ccc(C(=O)NS(=O)(=O)c4ccc(N[C@H](CCN5CCOCC5)CSc5ccccc5)c(S(=O)(=O)C(F)(F)F)c4)cc3)CC2)C1 [ABT-263, navitoclax]
- synergy with either AS or ART-838 [1]: Particularly strong synergy

Structure (SMILES): CN(C)CC[C@H](CSc1ccccc1)Nc1ccc(S(=O)(=O)NC(=O)c2ccc(N3CCN(Cc4ccccc4-c4ccc(Cl)cc4)CC3)cc2)cc1[N+](=O)[O-] [ABT-737]
- No. Cell Lines synergistically inhibited by drug 1 combined with AS and/or ART-838 [1]: 3/3
- synergy with either AS or ART-838 [1]: Particularly strong synergy

Structure (SMILES): O=C(Nc1cccc(C(F)(F)F)c1)Nc1cc(S(=O)(=O)NC2CC2)ccc1-c1ccsc1 [AGI6780]
- No. Cell Lines synergistically inhibited by drug 1 combined with AS and/or ART-838 [1]: 2/3**

Structure (SMILES): Nc1ccn([C@@H]2O[C@H](CO)[C@@H](O)[C@@H]2O)c(=O)n1 [ARA, cytarabine]
- tumor growth inhibition, ARA plus ART-838 versus either drug alone [3]: inhibited tumor growth substantially more than did either drug alone
- IC50 (MOLM14 cells [4]): 286 nM
- mitochondrial superoxide generation, drug alone [5]: induced mitochondrial superoxide generation
- effect of the drug on AS-induced superoxide [5]: further enhanced

Structure (SMILES): C[C@H]1[C@H](OC(=O)CCC(=O)O)O[C@@H]2O[C@@]3(C)CC[C@H]4[C@H](C)CC[C@@H]1[C@@]24OO3 [AS, artesunate]
- MTD at 5 d (in vivo): 200 mg/kg/day
- IC50 (human AML cell lines; median over the human AML cell lines tested (11 for AS and ART838, 4 for ART631), read-out: IC50 median): 1720 nM
- IC50 (human AML cell lines; range over the human AML cell lines tested (11 for AS and ART838, 4 for ART631), read-out: IC50 range): 796 to 6260 nM
- mitochondrial superoxide generation, drug alone [5]: induced mitochondrial superoxide generation
- IC50 (MOLM14 cells [2]; MOLM14 (AML) cell line): 825 nM

Structure (SMILES): C[C@@H](Oc1cc(-c2cnn(C3CCNCC3)c2)cnc1N)c1c(Cl)ccc(F)c1Cl [Crizotinib]
- No. Cell Lines synergistically inhibited by drug 1 combined with AS and/or ART-838 [1]: 2/3**

Structure (SMILES): COc1cccc2c1C(=O)c1c(O)c3c(c(O)c1C2=O)C[C@@](O)(C(=O)CO)C[C@@H]3O[C@H]1C[C@H](N)[C@H](O)[C@H](C)O1 [DOX, doxorubicin]
- mitochondrial superoxide generation, drug alone [5]: induced mitochondrial superoxide generation
- effect of the drug on ART-838-induced superoxide [5]: further enhanced
- effect of the drug on AS-induced superoxide [5]: further enhanced

Structure (SMILES): COc1cc([C@@H]2c3cc4c(cc3[C@@H](O[C@@H]3O[C@@H]5CO[C@@H](C)O[C@H]5[C@H](O)[C@H]3O)[C@H]3COC(=O)[C@H]23)OCO4)cc(OC)c1O [ETO, etoposide]
- IC50 (MOLM14 cells [4]): 242 nM
- mitochondrial superoxide generation, drug alone [5]: induced mitochondrial superoxide generation
- effect of the drug on ART-838-induced superoxide [5]: further enhanced
- effect of the drug on AS-induced superoxide [5]: further enhanced

Structure (SMILES): CCc1cc(Nc2nccc(-c3c(-c4ccc(OC)c(C(=O)Nc5c(F)cccc5F)c4)nc4ccccn34)n2)c(OC)cc1N1CCC(N2CCN(S(C)(=O)=O)CC2)CC1 [GSK-1904529A]
- No. Cell Lines synergistically inhibited by drug 1 combined with AS and/or ART-838 [1]: 3/3

Structure (SMILES): COc1ccc(COc2ccc(Cc3cnc(N)nc3N)cc2OC)cc1 [GW-2580]
- No. Cell Lines synergistically inhibited by drug 1 combined with AS and/or ART-838 [1]: 2/3

Structure (SMILES): O=S(=O)(NCCNC/C=C/c1ccc(Br)cc1)c1cccc2cnccc12 [H-89]
- No. Cell Lines synergistically inhibited by drug 1 combined with AS and/or ART-838 [1]: 2/3

Structure (SMILES): Cn1cc(-c2ccc3nnc(C(F)(F)c4ccc5ncccc5c4)n3n2)cn1 [JNJ-38877605]
- No. Cell Lines synergistically inhibited by drug 1 combined with AS and/or ART-838 [1]: 2/3

Structure (SMILES): C[C@]12O[C@H](C[C@]1(O)CO)n1c3ccccc3c3c4c(c5c6ccccc6n2c5c31)CNC4=O [LES, lestaurtinib]
- combination index (CI) of the drug combined with AS (MOLM14 cells [6]): 1.5

Structure (SMILES): Nc1ncnc2c1c(-c1cccc(OCc3ccccc3)c1)cn2C1CC(CN2CCCC2)C1 (stereo not shown) [NVP-ADW742]
- No. Cell Lines synergistically inhibited by drug 1 combined with AS and/or ART-838 [1]: 2/3

Structure (SMILES): Cc1ccc(S(=O)(=O)OCC(=O)Nc2ccc(C(=O)O)c(O)c2)cc1 [S31-201]
- No. Cell Lines synergistically inhibited by drug 1 combined with AS and/or ART-838 [1]: 2/3

Structure (SMILES): CNC(=O)c1cc(Oc2ccc(NC(=O)Nc3ccc(Cl)c(C(F)(F)F)c3)cc2)ccn1 [SOR, sorafenib]
- leukemia xenograft growth rates, drug combined with ART838 [7]: reduced leukemia xenograft growth rates
- survival, drug combined with ART838 [7]: prolonged survivals
- tumor growth inhibition, AS plus SOR versus either drug alone (MOLM14 AML xenografts): inhibited tumor growth substantially more than did either drug alone
- MCL1 protein levels (MCL1): large reductions; also recorded: downregulates
- effect of the drug on AS-induced superoxide [5]: reduced
